From patent US20230123334A1, “AMINO LIPID COMPOUND, PREPARATION METHOD THEREFOR, AND APPLICATION THEREOF” (SHENZHEN SHENXIN BIOTECHNOLOGY CO., LTD., priority 2020, published 2023)

Key:
HEK293 cells [1] = assay: Preliminary screening as mRNA vectors, EGFP mRNA transfection of HEK293 cells; format: cell-based; details: HEK293 cells, 96-well plates, EGFP mRNA 50 ng per well; percentage of GFP fluorescent cells relative to total number of cells (Hoechst)
Outline: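 HEK293 cells in DMEM plus 10% FBS transfected in 96-well format with 50 ng EGFP mRNA per well; Lipofectamine2000 served as positive control. Read-out is the percentage of GFP-fluorescent cells among total cells, counted by Hoechst nuclear stain.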

HEK293 cells [2] = assay: Preliminary screening as DNA vectors, GFP transfection of HEK293 cells; format: cell-based; details: HEK293 cells; lipid/DOPE liposome with 75 ng plasmid DNA (psin-EGFP-IRES-Puro); number of cells expressing GFP divided by total number of nuclei (Hoechst)
Outline: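 HEK293 cells in DMEM/10% FBS transfected with 75 ng EGFP plasmid per well complexed with amino lipid/DOPE liposomes in pH 5.6 sodium acetate. Hoechst nuclear stain added 20-24 h post-transfection, then cells cultured another 20-24 h. Confocal imaging gives GFP-positive cells as % of total nuclei.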

Structure (SMILES) | Absolute mRNA transfection efficiency in HEK293 cells (HEK293 cells [1]) | Absolute DNA transfection efficiency in HEK293 cells (HEK293 cells [2])
CCCCCCCCCCCCNc1nc(NCCCCCCCCC)nc(NCCN2CCCCC2)n1 [Compound N9N12D4] | 2.4% | 0.0%
CCCCCCCCCCSc1nc(NCCCN2CCOCC2)nc(SCCCCCCCCC)n1 [Compound S9S10D8] | 9.8% | 22.5%
CCCCCCCCCCCCCNc1nc(NCCCCCCCCCCC)nc(NCCN(CC)CC)n1 [Compound N11N13D7] | 0.9% | 0.5%
CCCCCCCCCCCCNc1nc(NCCCCCCCCCCC)nc(NCCN(C)C)n1 [Compound N11N12D1] | 0.3% | 0.0%
CCCCCCCCCCCCCNc1nc(NCCCCCCCCC)nc(NCCN2CCOCC2)n1 [Compound N9N13D2] | 0.6% | 0.0%
CCCCCCCCCCCCCCCNc1nc(NCCCCCCCC)nc(NCCCN(C)C)n1 [Compound N8N15D6] | 0.0% | 1.3%
CCCCCCCCCCCCCCCCSc1nc(NCCCN2CCN(C)CC2)nc(SCCCCCCCCCCC)n1 [Compound S11S16D9] | 16.4% | 3.6%
CCCCCCCNc1nc(NCCCCCC)nc(NCCCN2CCN(C)CC2)n1 [Compound N6N7D9] | 0.0% | 0.0%
CCCCCCCCNc1nc(NCCCCCCC)nc(NCCN2CCCCC2)n1 [Compound N7N8D4] | 0.0% | 0.2%
CCCCCCCCCCCNc1nc(NCCCCCCC)nc(NCCN2CCN(C)CC2)n1 [Compound N7N11D5] | 0.1% | 0.6%
CCCCCCCCCCCNc1nc(NCCCCCCCCC)nc(NCCCN2CCN(C)CC2)n1 [Compound N9N11D9] | 0.7% | 0.0%
CCCCCCCCCCCCCCCCCCSc1nc(NCCN2CCCC2)nc(SCCCCCCCCCCCCCCC)n1 [Compound S15S18D3] | 1.9% | 2.6%
CCCCCCCCCCCCCNc1nc(NCCCCCCCCC)nc(NCCN(CC)CC)n1 [Compound N9N13D7] | 0.3% | 0.0%
CCCCCCCCCCCCCCCSc1nc(NCCCN2CCOCC2)nc(SCCCCCCCCCCCC)n1 [Compound S12S15D8] | 3.2% | 3.1%
CCCCCCCCCCCSc1nc(NCC2CCN(C)CC2)nc(SCCCCCCCCC)n1 [Compound S9S11D10] | 88.8% | 32.8%
CCCCCCCCCCCCCCCCCCNc1nc(NCCCCCCCC)nc(NCCCN2CCOCC2)n1 [Compound N8N18D8] | 2.8% | 1.3%
CCCCCCCCCCCCCCCCCCSc1nc(NCC2CCN(C)CC2)nc(SCCCCCCCCCCCC)n1 [Compound S12S18D10] | 7.7% | 7.5%
CCCCCCCCCCCCN(CCCCCCCCCCCC)c1nc(NCCCCCCC)nc(NCCN2CCN(C)CC2)n1 [N7^2N12D5] | 2.4% | 0.9%
CCCCCCCCCCCCCCCCCCSc1nc(NCCCN2CCOCC2)nc(SCCCCCCCCCCCCCC)n1 [Compound S14S18D8] | 0.3% | 0.2%
CCCCCCCCCNc1nc(NCCCCCCCC)nc(NCCCN2CCN(C)CC2)n1 [Compound N8N9D9] | 0.0% | 0.0%
CCCCCCCCCCCCCCCCNc1nc(NCCCN2CCOCC2)nc(N(CCCCCCCCCCCC)CCCCCCCCCCCC)n1 [N16^2N12D8] | 4.3% | 0.4%
CCCCCCCCCCCCCCCNc1nc(NCCCCCCCCCCCCC)nc(NCCN2CCOCC2)n1 [Compound N13N15D2] | 1.4% | 0.0%
CCCCCCCCCCCCCCCNc1nc(NCC2CCN(C)CC2)nc(N(CCCCCCCCCCCC)CCCCCCCCCCCC)n1 [N15^2N12D10] | 3.5% | 0.0%
CCCCCCCCCCCCCNc1nc(NCCCCCC)nc(NCC2CCN(C)CC2)n1 [Compound N6N13D10] | 0.0% | 0.0%

Structure (SMILES) | Absolute mRNA transfection efficiency in HEK293 cells (HEK293 cells [1]) | Absolute DNA transfection efficiency in HEK293 cells (HEK293 cells [2])
CCCCCCCNc1nc(NCCCCCC)nc(NCCN2CCCC2)n1 [Compound N6N7D3] | 0.0% | 0.4%
CCCCCCCCCCCCCCCSc1nc(NCCN(CC)CC)nc(SCCCCCCCCCCCCCC)n1 [Compound S14S15D7] | 0.4% | 0.6%
CCCCCCCCCCCCNc1nc(NCCCCCC)nc(NCCN2CCN(C)CC2)n1 [Compound N6N12D5] | 0.0% | 0.1%
CCCCCCCCCCCCCCCCCCNc1nc(NCCCCCCCCCCCCCCCC)nc(NCCCN2CCN(C)CC2)n1 [Compound N16N18D9] | 0.0% | 0.0%
CCCCCCCCCCCCCNc1nc(NCCCCCCCCCCCC)nc(NCCCN2CCOCC2)n1 [Compound N12N13D8] | 0.0% | 0.3%
CCCCCCCCCCCCCCCCNc1nc(NCCCCCCCC)nc(NCCCN2CCN(C)CC2)n1 [Compound N8N16D9] | 0.5% | 1.0%
CCCCCCCCCCCCCCCCSc1nc(NCCN2CCCCC2)nc(SCCCCCCCCCC)n1 [Compound S10S16D4] | 0.8% | 9.1%
CCCCCCCCCCCCCCCCNc1nc(NCCCCCCCCC)nc(NCC2CCN(C)CC2)n1 [Compound N9N16D10] | 1.2% | 4.8%
CCCCCCCCCCCCCCCCNc1nc(NCCCCCCCCCCCC)nc(NCCN2CCN(C)CC2)n1 [Compound N12N16D5] | 1.4% | 0.1%
CCCCCCCCCCCCCCCCNc1nc(NCCCCCCCCCCCCCCCC)nc(NCCN2CCOCC2)n1 [Compound N16N16D2] | 0.0% | 0.2%
CCCCCCCCCCCCCCCCCCSc1nc(NCC2CCN(C)CC2)nc(SCCCCCCCCCCCCCCCCCC)n1 [Compound S18S18D10] | 0.0% | 0.0%
CCCCCCCCCCCCCCCSc1nc(NCCN2CCOCC2)nc(SCCCCCCCCCCC)n1 [Compound S11S15D2] | 0.0% | 0.3%
CCCCCCCCCCCNc1nc(NCCCCCCCCC)nc(NCCN(CC)CC)n1 [Compound N9N11D7] | 0.8% | 0.0%
CCCCCCCCCCCCCCCCCCNc1nc(NCCCCCCCCCCCCCCC)nc(NCCCN(C)C)n1 [Compound N15N18D6] | 8.6% | 0.6%
CCCCCCCCCCCCCCCCCCNc1nc(NCCCCCCCCCCCC)nc(NCCN(C)C)n1 [Compound N12N18D1] | 9.4% | 1.4%
CCCCCCCCCCCCCCCNc1nc(NCCCCCC)nc(NCCN(CC)CC)n1 [Compound N6N15D7] | 0.0% | 0.0%
CCCCCCCCCCCCCCCCSc1nc(NCCN2CCN(C)CC2)nc(SCCCCCCCCCCC)n1 [Compound S11S16D5] | 5.1% | 4.9%
CCCCCCCCCCCCCCSc1nc(NCC2CCN(C)CC2)nc(SCCCCCCCCCCCC)n1 [Compound S12S14D10] | 30.4% | 6.5%
CCCCCCCCCCCCN(CCCCCCCCCCCC)c1nc(NCCN2CCN(C)CC2)nc(N(CCCCCCCCCCCC)CCCCCCCCCCCC)n1 [2N12^2N12D5] | 2.7% | 0.0%
CCCCCCCCCCCSc1nc(NCCN2CCCCC2)nc(SCCCCCCCCC)n1 [Compound S9S11D4] | 4.1% | 15.2%
CCCCCCCCCCCCCCCCCCSc1nc(NCC2CCN(C)CC2)nc(SCCCCCCCCCCCCCCC)n1 [Compound S15S18D10] | 1.8% | 0.3%
CCCCCCCCCCCCNc1nc(NCCCCCCCCC)nc(NCCN(C)C)n1 [Compound N9N12D1] | 0.5% | 0.0%
CCCCCCCCCCCSc1nc(NCCN(C)C)nc(SCCCCCCCCC)n1 [Compound S9S11D1] | 3.0% | 9.5%
